Test results as given in ChEMBL document CHEMBL1641505, “17β-HSD2 inhibitors for the treatment of osteoporosis: Identification of a promising scaffold” (Bioorg Med Chem, 2011).

What was measured:
[1] = molecular target: T1, 17-beta-hydroxysteroid dehydrogenase type 2 (Homo sapiens) (UniProt P37059); assay: Inhibition of [3H]E2 binding to human placental 17beta-HSD2 at 1 uM after 20 mins
T1 sequence (whole entry): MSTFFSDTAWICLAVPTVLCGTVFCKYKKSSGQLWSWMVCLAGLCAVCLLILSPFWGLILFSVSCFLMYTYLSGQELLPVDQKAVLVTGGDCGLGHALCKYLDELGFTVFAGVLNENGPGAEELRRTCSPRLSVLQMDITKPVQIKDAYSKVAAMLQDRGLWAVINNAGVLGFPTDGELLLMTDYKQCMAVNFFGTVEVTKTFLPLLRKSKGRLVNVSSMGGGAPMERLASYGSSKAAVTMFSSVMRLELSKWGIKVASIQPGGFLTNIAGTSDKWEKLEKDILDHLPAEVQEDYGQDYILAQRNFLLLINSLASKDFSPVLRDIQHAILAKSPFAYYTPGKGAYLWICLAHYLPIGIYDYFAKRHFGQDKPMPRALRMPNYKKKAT

[2] = molecular target: T2, 17-beta-hydroxysteroid dehydrogenase type 1 (Homo sapiens) (UniProt P14061); assay: Inhibition of [3H]E1 binding to human placental 17beta-HSD1 at 1 uM after 20 mins
T2 sequence (whole entry): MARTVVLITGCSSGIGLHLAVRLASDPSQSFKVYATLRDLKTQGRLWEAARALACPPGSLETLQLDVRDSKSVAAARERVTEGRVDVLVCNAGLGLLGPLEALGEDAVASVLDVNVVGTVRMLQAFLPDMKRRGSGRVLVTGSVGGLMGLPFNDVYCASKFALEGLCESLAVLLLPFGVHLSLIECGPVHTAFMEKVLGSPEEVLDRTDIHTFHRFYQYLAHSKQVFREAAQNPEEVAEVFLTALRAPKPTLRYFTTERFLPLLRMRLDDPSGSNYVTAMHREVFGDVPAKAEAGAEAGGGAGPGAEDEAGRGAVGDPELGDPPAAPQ

[3] = species on record: Homo sapiens; assay: Selectivity ratio of IC50 for human placental 17beta-HSD1 to IC50 for human placental 17beta-HSD2
[4] = molecular target: Estrogen receptor beta (Homo sapiens) (UniProt Q92731); assay: Displacement of [3H]E2 from human recombinant ERbeta by liquid scintillation counting relative to estradiol
Chain of Estrogen receptor beta (Homo sapiens) (Q92731 whole entry): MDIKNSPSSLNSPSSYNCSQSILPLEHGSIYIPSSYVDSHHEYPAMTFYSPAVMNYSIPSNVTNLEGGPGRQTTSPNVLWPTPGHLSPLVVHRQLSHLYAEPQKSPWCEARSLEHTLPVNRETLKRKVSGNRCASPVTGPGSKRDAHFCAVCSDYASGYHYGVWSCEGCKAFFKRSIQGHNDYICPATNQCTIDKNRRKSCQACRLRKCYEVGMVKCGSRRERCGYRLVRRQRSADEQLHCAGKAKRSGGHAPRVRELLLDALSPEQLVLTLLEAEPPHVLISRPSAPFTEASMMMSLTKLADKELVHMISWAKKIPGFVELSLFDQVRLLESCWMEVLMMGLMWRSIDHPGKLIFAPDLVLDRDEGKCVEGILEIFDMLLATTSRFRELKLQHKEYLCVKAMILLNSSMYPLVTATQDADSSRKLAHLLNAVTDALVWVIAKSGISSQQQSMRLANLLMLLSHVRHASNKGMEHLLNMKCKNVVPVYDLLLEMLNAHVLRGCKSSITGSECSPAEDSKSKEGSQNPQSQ

[5] = molecular target: T3, Estrogen receptor (Homo sapiens) (UniProt P03372); assay: Displacement of [3H]E2 from human recombinant ERalpha by liquid scintillation counting relative to estradiol
T3 sequence (whole entry): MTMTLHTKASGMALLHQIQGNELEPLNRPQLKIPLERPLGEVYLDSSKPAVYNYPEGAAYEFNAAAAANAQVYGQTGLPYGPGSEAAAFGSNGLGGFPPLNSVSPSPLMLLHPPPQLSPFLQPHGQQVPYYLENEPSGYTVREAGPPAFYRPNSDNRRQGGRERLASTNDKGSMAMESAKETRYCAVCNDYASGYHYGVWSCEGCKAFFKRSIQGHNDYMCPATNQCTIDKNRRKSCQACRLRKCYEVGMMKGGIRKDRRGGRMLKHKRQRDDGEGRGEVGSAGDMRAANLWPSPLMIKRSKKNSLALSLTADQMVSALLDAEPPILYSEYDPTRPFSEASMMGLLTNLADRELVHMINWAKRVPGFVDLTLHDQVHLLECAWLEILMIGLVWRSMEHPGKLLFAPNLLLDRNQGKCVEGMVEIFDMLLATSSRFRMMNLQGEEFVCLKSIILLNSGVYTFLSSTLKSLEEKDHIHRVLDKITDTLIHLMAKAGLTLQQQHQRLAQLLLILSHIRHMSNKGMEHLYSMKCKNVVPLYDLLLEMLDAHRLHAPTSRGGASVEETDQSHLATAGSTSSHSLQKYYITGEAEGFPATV

[6] = molecular target: T4, 17-beta-hydroxysteroid dehydrogenase type 2 (Homo sapiens, UniProt P37059); assay: Inhibition of [3H]E2 binding to human placental 17beta-HSD2 after 20 mins
T4 sequence (P37059 whole entry): T1 sequence (whole entry)

[7] = molecular target: T5, 17-beta-hydroxysteroid dehydrogenase type 1 (Homo sapiens, UniProt P14061); assay: Inhibition of [3H]E1 binding to human placental 17beta-HSD1 after 20 mins
T5 sequence (P14061 whole entry): T2 sequence (whole entry)

inhibition [1] [%]	inhibition [2] [%]	Compound	also measured
< 10	< 10	Oc1cccc2cc(-c3cncnc3)ccc12	–
< 10	< 10	CC(=O)Nc1cccc(-c2ccc(CO)cc2)c1	–
14	< 10	COc1ccc(C(=O)N(C)c2cccc(-c3ccc(CO)cc3)c2)cc1	–
< 10	–	Oc1ccc2cc(-c3ccccc3O)ccc2c1	–
32	–	Oc1cccc(-c2ccc3c(O)cccc3c2)c1	–
15	< 10	COc1cccc(C(=O)N(C)c2cccc(-c3ccc(CO)cc3)c2)c1	–
13	15	O=[N+]([O-])c1ccc(-c2ccc3c(O)cccc3c2)cc1	–
43	< 10	CNC(=O)c1cccc(-c2ccc3c(O)cccc3c2)c1	–
13	< 10	Oc1cccc2cc(-c3ccoc3)ccc12	–
< 10	< 10	CN(C(=O)c1ccccc1)c1cccc(-c2ccc(CO)cc2)c1	–
< 10	< 10	COc1ccncc1-c1ccc2c(O)cccc2c1	–
< 10	< 10	CC(=O)Nc1cccc(-c2ccc(O)cc2)c1	–
22	19	CS(=O)(=O)Nc1cccc(-c2ccc3c(O)cccc3c2)c1	–
< 10	< 10	O=C(Nc1cccc(-c2ccc(CO)cc2)c1)c1ccccc1	–
14	< 10	Cc1cccc(S(=O)(=O)Nc2ccc(-c3ccc(O)cc3)cc2)c1	–
12	< 10	Cc1cccc(S(=O)(=O)Nc2ccc(-c3ccc(CO)cc3)cc2)c1	–
74	20	Oc1ccc(-c2ccc3c(O)cccc3c2)cc1	Ratio IC50 [3]: 8; Activity [4]: 5%; Activity [5]: 5%
12	16	N#Cc1ccc(-c2ccc3c(O)cccc3c2)cc1	–
46	< 10	CN(C(=O)c1ccccc1)c1cccc(-c2ccc(O)cc2)c1	–
< 10	< 10	O=C(Nc1cccc(-c2ccc(O)cc2)c1)c1ccccc1	–
26	< 10	Oc1cccc2cc(-c3ccncc3)ccc12	–
13	16	COc1ccc(-c2cccc(N(C)C(=O)c3cccc(OC)c3)c2)cc1	–

inhibition [1] [%]	inhibition [2] [%]	Compound	also measured
17	44	Oc1ccc2cc(-c3ccccc3)ccc2c1	–
57	12	CNS(=O)(=O)c1ccc(-c2ccc3c(O)cccc3c2)cc1	–
–	< 10	CN(C(=O)Cc1cccc(O)c1)c1cccc(-c2ccc(O)cc2)c1	–
13	< 10	CNC(=O)c1ccc(-c2ccc3c(O)cccc3c2)cc1	–
12	–	Oc1cccc(-c2ccc3ccccc3c2)c1	–
< 10	< 10	COc1ccc(CC(=O)N(C)c2cccc(-c3ccc(CO)cc3)c2)cc1	–
< 10	< 10	O=C(Nc1cccc(-c2ccc3c(O)cccc3c2)c1)c1ccccc1	–
16	< 10	O=C(O)c1ccc(-c2ccc3c(O)cccc3c2)cc1	–
< 10	< 10	Oc1cccc2cc(-c3ccc(F)cc3)ccc12	–
20	< 10	Oc1cccc2cc(-c3ccccc3)ccc12	–
10	25	COc1ccc(CC(=O)N(C)c2cccc(-c3ccc(OC)cc3)c2)cc1	–
75	52	CS(=O)(=O)Nc1ccc(-c2ccc3c(O)cccc3c2)cc1	Ratio IC50 [3]: 1; IC50 [6]: 0.6 µM; IC50 [7]: 0.614 µM
< 10	< 10	COc1ccc(-c2cccc(N(C)C(=O)Cc3cccc(OC)c3)c2)cc1	–
12	< 10	COc1cccc(CC(=O)N(C)c2cccc(-c3ccc(CO)cc3)c2)c1	–
< 10	< 10	CS(=O)(=O)Nc1ccc(-c2ccc(CO)cc2)cc1	–
< 10	16	CC(=O)c1ccc(-c2ccc3c(O)cccc3c2)cc1	–
20	28	COc1ccc(-c2ccc3c(O)cccc3c2)cc1	–
64	12	CC(=O)Nc1cccc(-c2ccc3c(O)cccc3c2)c1	Ratio IC50 [3]: 12; IC50 [6]: 0.696 µM; IC50 [7]: 8.52 µM
< 10	< 10	CS(=O)(=O)Nc1ccc(-c2ccc(O)cc2)cc1	–
20	< 10	COc1ccc(C(=O)N(C)c2cccc(-c3ccc(OC)cc3)c2)cc1	–
–	100	Oc1cccc(-c2ccc3cc(O)ccc3c2)c1	Ratio IC50 [3]: 0.02
31	14	OCc1ccc(-c2ccc3c(O)cccc3c2)cc1	–
